# Biological target: T1, human TRPV1 (Homo sapiens, UniProt Q8NER1)
# T1 construct: expressed in transfected cells; host or cells: CHO-K1
# Assay: Measurement of capsaicin-induced Ca influx in human TRPV1 transformed CHO cell line using FDSS-6000
# Format: cell-based
# Conditions: concentration at which the capsaicin concentration-reaction curve is shifted two times to the right, human TRPV1 transformed CHO cells
# T1 sequence (Q8NER1 whole entry): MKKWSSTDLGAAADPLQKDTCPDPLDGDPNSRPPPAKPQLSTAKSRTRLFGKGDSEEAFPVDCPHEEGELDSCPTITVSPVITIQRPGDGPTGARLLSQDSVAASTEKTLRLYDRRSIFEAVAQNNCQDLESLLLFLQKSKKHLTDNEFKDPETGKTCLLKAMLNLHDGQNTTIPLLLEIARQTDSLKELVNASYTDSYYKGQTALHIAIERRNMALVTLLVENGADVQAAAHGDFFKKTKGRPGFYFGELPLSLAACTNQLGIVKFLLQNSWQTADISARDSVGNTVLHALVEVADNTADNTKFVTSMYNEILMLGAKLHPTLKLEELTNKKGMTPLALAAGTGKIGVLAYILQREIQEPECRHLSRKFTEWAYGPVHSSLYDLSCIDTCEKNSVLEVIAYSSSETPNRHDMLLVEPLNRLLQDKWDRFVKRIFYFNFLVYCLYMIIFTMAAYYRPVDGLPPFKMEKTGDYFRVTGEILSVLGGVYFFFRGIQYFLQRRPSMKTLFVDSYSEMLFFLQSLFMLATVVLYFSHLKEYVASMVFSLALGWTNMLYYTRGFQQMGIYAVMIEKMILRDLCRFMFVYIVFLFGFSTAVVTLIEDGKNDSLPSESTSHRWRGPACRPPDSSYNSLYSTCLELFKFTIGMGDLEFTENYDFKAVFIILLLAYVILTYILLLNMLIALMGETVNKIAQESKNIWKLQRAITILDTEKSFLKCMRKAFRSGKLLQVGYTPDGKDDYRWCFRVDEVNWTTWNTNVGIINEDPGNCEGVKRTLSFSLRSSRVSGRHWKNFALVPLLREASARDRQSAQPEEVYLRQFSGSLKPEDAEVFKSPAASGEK
row,SMILES,A2 VALUE
1,"O=C(/C=C1\CCOc2cc(OC(F)(F)F)ccc21)Nc1cccc2c1CC(O)CC2 (stereo not drawn) [Example 210, (E)-2-(7-trifluoromethoxy-chroman-4-ylidene)-N-(7-hydroxy-5,6,7,8-tetrahydronaphthalen-1-yl)acetamide]",A (compounds of the present invention having an A2 value of less than 100 nM are represented by A)
2,"O=C(/C=C1\CCOc2cc(OC(F)(F)F)ccc21)Nc1cccc2c1CC(O)CN2 (stereo not drawn) [Example 211, (E)-2-(7-trifluoromethoxy-chroman-4-ylidene)-N-(3-hydroxy-1,2,3,4-tetrahydroquinolin-5-yl)acetamide]",A (compounds of the present invention having an A2 value of less than 100 nM are represented by A)
3,"O=C(/C=C1\CCOc2cc(OC(F)(F)C(F)F)ccc21)Nc1cccc2c1CC(O)CC2 (stereo not drawn) [Example 212, (E)-2-(7-(1,1,2,2-tetrafluoroethoxy)-chroman-4-ylidene)-N-(7-hydroxy-5,6,7,8-tetrahydronaphthalen-1-yl)acetamide]",A (compounds of the present invention having an A2 value of less than 100 nM are represented by A)
4,"O=C(/C=C1\CCOc2cc(OC(F)(F)C(F)F)ccc21)Nc1cccc2c1CC(O)CN2 (stereo not drawn) [Example 213, (E)-2-(7-(1,1,2,2-tetrafluoroethoxy)-chroman-4-ylidene)-N-(3-hydroxy-1,2,3,4-tetrahydroquinolin-5-yl)acetamide]",A (compounds of the present invention having an A2 value of less than 100 nM are represented by A)
5,"O=C(/C=C1\CCOc2cc(C(F)(F)F)c(F)cc21)Nc1cccc2c1CC(O)CC2 (stereo not drawn) [Example 214, (E)-2-(6-fluoro-7-trifluoromethyl-chroman-4-ylidene)-N-(7-hydroxy-5,6,7,8-tetrahydronaphthalen-1-yl)acetamide]",A (compounds of the present invention having an A2 value of less than 100 nM are represented by A)
6,"O=C(/C=C1\CCOc2cc(C(F)(F)F)c(F)cc21)Nc1cccc2c1CC(O)CN2 (stereo not drawn) [Example 215, (E)-2-(6-fluoro-7-trifluoromethyl-chroman-4-ylidene)-N-(3-hydroxy-1,2,3,4-tetrahydroquinolin-5-yl)acetamide]",A (compounds of the present invention having an A2 value of less than 100 nM are represented by A)
7,"O=C(/C=C1\CCOc2cc(C(F)(F)F)ccc21)Nc1ccc2sc(CO)nc2c1 [Example 216, (E)-2-(7-trifluoromethyl-chroman-4-ylidene)-N-(2-hydroxymethyl-1,3-benzothiazolo-5-yl)acetamide]",A (compounds of the present invention having an A2 value of less than 100 nM are represented by A)
8,"O=C(/C=C1\CCCOc2cc(C(F)(F)F)ccc21)Nc1cccc2c1CC(O)CN2 (stereo not drawn) [Example 218, (E)-2-(8-trifluoromethyl-3,4-dihydrobenzo[b]oxepin-5(2H)-ylidene)-N-(3-hydroxy-1,2,3,4-tetrahydroquinolin-5-yl)acetamide]",A (compounds of the present invention having an A2 value of less than 100 nM are represented by A)
9,"O=C(/C=C1\CCCOc2cc(C(F)(F)F)ccc21)Nc1cccc2c1CC(O)CN2 (stereo not drawn) [Example 219, (E)-2-(8-trifluoromethyl-3,4-dihydrobenzo[b]oxepin-5(2H)-ylidene)-N-(3-hydroxy-1,2,3,4-tetrahydroquinolin-5-yl)acetamide]",A (compounds of the present invention having an A2 value of less than 100 nM are represented by A)
10,"CC1(O)CCc2cccc(NC(=O)/C=C3\CCCOc4cc(C(F)(F)F)ccc43)c2C1 (stereo not drawn) [Example 220, (E)-2-(8-trifluoromethyl-3,4-dihydrobenzo[b]oxepin-5(2H)-ylidene)-N-(7-hydroxy-7-methyl-5,6,7,8-tetrahydronaphthalen-1-yl)acetamide]",A (compounds of the present invention having an A2 value of less than 100 nM are represented by A)
11,"Cc1sc2cnccc2c1NC(=O)/C=C1\CCCOc2cc(C(F)(F)F)ccc21 [Example 221, (E)-2-(8-trifluoromethyl-3,4-dihydrobenzo[b]oxepin-5(2H)-ylidene)-N-(2-methylthieno[2,3-c]pyridin-3-yl)acetamide]",A (compounds of the present invention having an A2 value of less than 100 nM are represented by A)
12,"O=C(/C=C1\CCCOc2cc(C(F)(F)F)ccc21)Nc1ncc(CO)cc1Cl [Example 224, (E)-2-(8-trifluoromethyl-3,4-dihydrobenzo[b]oxepin-5(2H)-ylidene)-N-(3-chloro-5-hydroxymethyl-2-pyridyl)acetamide]",B (compounds having an A2 value of 100 nM or more are represented by B)
13,"O=C(/C=C1\CCCOc2cc(C(F)(F)F)ccc21)NCCc1cccc2c1CC(O)CC2 (stereo not drawn) [Example 226, (E)-2-(8-trifluoromethyl-3,4-dihydrobenzo[b]oxepin-5(2H)-ylidene)-N-(2-(7-hydroxy-5,6,7,8-tetrahydronaphthalen-1-yl)ethyl)acetamide]",A (compounds of the present invention having an A2 value of less than 100 nM are represented by A)
14,"CC(CNC(=O)/C=C1\CCCOc2cc(C(F)(F)F)ccc21)c1cccc2c1CC(O)CC2 (stereo not drawn) [Example 227, (E)-2-(8-trifluoromethyl-3,4-dihydrobenzo[b]oxepin-5(2H)-ylidene)-N-(2-(7-hydroxy-5,6,7,8-tetrahydronaphthalen-1-yl)propyl)acetamide]",A (compounds of the present invention having an A2 value of less than 100 nM are represented by A)
15,O=C(/C=C1\CCCOc2cc(C(F)(F)F)ccc21)Nc1cccc(N2CCCC2CO)c1 (stereo not drawn) [Example 229],B (compounds having an A2 value of 100 nM or more are represented by B)
16,O=C(/C=C1\CCCOc2cc(C(F)(F)F)ccc21)Nc1ccc2c(c1)N(C(=O)CO)CCO2 [Example 231],B (compounds having an A2 value of 100 nM or more are represented by B)
17,O=C(/C=C1\CCCOc2cc(C(F)(F)F)ccc21)Nc1ccc2c(c1)N(CCO)CCO2 [Example 233],A (compounds of the present invention having an A2 value of less than 100 nM are represented by A)
18,"O=C(/C=C1\CCCOc2cc(C(F)(F)F)ccc21)Nc1ccc2c(c1)N(CCO)C(=O)CO2 [Example 234, (E)-2-(8-trifluoromethyl-3,4-dihydrobenzo[b]oxepin-5(2H)-ylidene)-N-(4-(2-hydroxyethyl)-2H-1,4-benzoxazin-3(4H)-on-6-yl)acetamide]",A (compounds of the present invention having an A2 value of less than 100 nM are represented by A)
19,"O=C(/C=C1\CCOc2nc(C(F)(F)F)ccc21)Nc1cccc2c1CC(O)CC2 (stereo not drawn) [Example 238, (E)-2-(7-trifluoromethyl-3,4-dihydro-2H-pyrano[2,3-b]pyridin-4-ylidene)-N-(7-hydroxy-5,6,7,8-tetrahydronaphthalen-1-yl)acetamide]",A (compounds of the present invention having an A2 value of less than 100 nM are represented by A)
20,"O=C(/C=C1\CCCOc2nc(C(F)(F)F)ccc21)Nc1cccc2c1CC(O)CC2 (stereo not drawn) [Example 239, (E)-2-(8-trifluoromethyl-2,3,4,5-tetrahydrooxepino[2,3-b]pyridin-5-ylidene)-N-(7-hydroxy-5,6,7,8-tetrahydronaphthalen-1-yl)acetamide]",A (compounds of the present invention having an A2 value of less than 100 nM are represented by A)
21,"CC1(C)N/C(=C\C(=O)Nc2cccc3c2CC(O)CC3)c2ccc(C(F)(F)F)cc2O1 (stereo not drawn) [Example 240, (Z)-2-(6-trifluoromethyl-3,3-dimethyl-4-oxa-3,4-dihydro-(2H)-isoquinolin-1-ylidene)-N-(7-hydroxy-5,6,7,8-tetrahydronaphthalen-1-yl)acetamide]",A (compounds of the present invention having an A2 value of less than 100 nM are represented by A)
22,"CC1(C)C/C(=C\C(=O)Nc2cccc3c2CC(O)CC3)c2ccc(C(F)(F)F)cc2O1 (stereo not drawn) [Example 241, (E)-2-(7-trifluoromethyl-2,2-dimethylchroman-4-ylidene)-N-(7-hydroxy-5,6,7,8-tetrahydronaphthalen-1-yl)acetamide]",A (compounds of the present invention having an A2 value of less than 100 nM are represented by A)
23,"CC1(C)C/C(=C\C(=O)Nc2cccc3c2CC(O)CC3)c2ccc(C(F)(F)F)cc2O1 (stereo not drawn) [Example 242, (E)-2-(7-trifluoromethyl-2,2-dimethylchroman-4-ylidene)-N-(7-hydroxy-5,6,7,8-tetrahydronaphthalen-1-yl)acetamide]",A (compounds of the present invention having an A2 value of less than 100 nM are represented by A)
24,"CC1(C)C/C(=C\C(=O)Nc2cccc3c2CC(O)CC3)c2ccc(C(F)(F)F)cc2O1 (stereo not drawn) [Example 243, (E)-2-(7-trifluoromethyl-2,2-dimethylchroman-4-ylidene)-N-(7-hydroxy-5,6,7,8-tetrahydronaphthalen-1-yl)acetamide]",A (compounds of the present invention having an A2 value of less than 100 nM are represented by A)
25,"CC1(C)C/C(=C\C(=O)Nc2cccc3c2CC(O)CN3)c2ccc(C(F)(F)F)cc2O1 (stereo not drawn) [Example 244, (E)-2-(7-trifluoromethyl-2,2-dimethylchroman-4-ylidene)-N-(3-hydroxy-1,2,3,4-tetrahydroquinolin-5-yl)acetamide]",A (compounds of the present invention having an A2 value of less than 100 nM are represented by A)
26,"CC1(C)C/C(=C\C(=O)Nc2cccc3c2CC(O)CN3)c2ccc(C(F)(F)F)cc2O1 (stereo not drawn) [Example 245, (E)-2-(7-trifluoromethyl-2,2-dimethylchroman-4-ylidene)-N-(3-hydroxy-1,2,3,4-tetrahydroquinolin-5-yl)acetamide]",A (compounds of the present invention having an A2 value of less than 100 nM are represented by A)
27,"CC1(C)C/C(=C\C(=O)Nc2cccc3c2CC(O)CN3)c2ccc(C(F)(F)F)cc2O1 (stereo not drawn) [Example 246, (E)-2-(7-trifluoromethyl-2,2-dimethylchroman-4-ylidene)-N-(3-hydroxy-1,2,3,4-tetrahydroquinolin-5-yl)acetamide]",A (compounds of the present invention having an A2 value of less than 100 nM are represented by A)

# From patent US7910751B2, “Heterocyclidene acetamide derivative” (Mochida Pharmaceutical Co., Ltd., priority 2005, dated 2011)
